Where “and” joins values, the source holds several entries; their conditions need not be identical. Equal entries are not always repeated.
B1: TRAIL: cytotoxic protein which induces apoptosis in tumor cells, but not in normal cells (protein, UniProt P50591 1-281, looked up)
Tumor necrosis factor ligand …: MAMMEVQGGPSLGQTCVLIVIFTVLLQSLCVAVTYVYFTNELKQMQDKYSKSGIACFLKEDDSYWDPNDEESMNSPCWQVKWQLRQLVRKMILRTSEETISTVQEKQQNISPLVRERGPQRVAAHITGTRGRSNTLSSPNSKNEKALGRKINSWESSRSGHSFLSNLHLRNGELVIHEKGFYYIYSQTYFRFQEEIKENTKNDKQMVQYIYKYTSYPDPILLMKSARNSCWSKDAEYGLYSIYQGGIFELKENDRIFVSVTNEHLIDMDHEASFFGAFLVG

Assays:
[1] = system: AGS gastric adenocarcinoma cells; experiment: MTT cell death assay, chemotherapeutic with and without MADD siRNA knockdown; type: cell-based; conditions: siRNA 10 nM
Procedure: (§1) Cells are cultured and maintained at 37° C. in a humidified atmosphere containing 5% CO2 as described above. […] After 12-18 hours (Day 1), cells are transfected with Scramble or MADD siRNA at 10 nM concentration. The sequences of siRNAs (double-stranded) used are:
(§2) On Day 4, when cells are properly adhered and retained their shape in 96-well plates, drugs are added. All drugs are diluted in complete media on the same day prior to the addition to the cells. In untreated cells, media is replaced with complete media. Two hundred μl volume of media (with or without drugs) is used for the drug treatment assay. Plates are incubated 24 hours, 48 hours and 72 hours at 37° C. in humidified CO2 incubator.
(§3) An MTT assay is performed to determine relative survival after drug treatment as described above. MTT (3-[4,5-Dimethylthiazol-2-yl]-2,5-diphenyltetrazolium bromide; Thiazolyl blue) is purchased from Sigma Aldrich (Cat number: M5655). […] Ten μl of MTT solution is added per well of 96-well plate. Plates are incubated for 2 hours at 37° C. in the humidified CO2 incubator. After 2 hours, media is aspirated using vacuum inside the biosafety hood. Purple colored crystals formed in viable cells are dissolved by adding 100 μl of Dimethyl sulfoxide (Thermo Fisher Scientific; Cat number D128-500) Plates are kept on shaker for 10 minutes for compete dissolution of crystals and absorbance is recorded at 595 nm using Bio-Rad iMark microplate reader. Data is analyzed in MICROSOFT EXCEL® software. Relative survival is calculated with respect to absorbance of control (untreated cells) to determine the effect of transfection as well as combination treatment.
(§4) Each data set takes into account any spontaneous cell death which is observed upon transfection with Scramble siRNA; the amount of spontaneous cell death from Scramble siRNA transfection (baseline) is subtracted from the amount of cell death observed in each siRNA transfection reaction to yield a Net Percent (Net %) cell death after accounting for Scrambled siRNA-induced cell death.
(§5) Cells are cultured and maintained at 37° C. in a humidified atmosphere containing 5% CO2 as described above. […] After 12-18 hours (Day 1), cells are transfected with Scramble or MADD siRNA at 10 nM concentration. The sequences of siRNAs (double stranded) used are:
as §3, with “D128-500).” for “D128-500)”
as §2, with “24 h,” for “24 hours,”, “48 h” for “48 hours”

[2] = system: PLC/PRF/5 hepatic cancer cells; experiment: as above; type: cell-based; conditions: siRNA 10 nM
Procedure: as §1, §2, §3, §4, §5
as §3, with “D128-500).” for “D128-500)”
as §2, with “24 h,” for “24 hours,”, “48 h” for “48 hours”

[3] = Sorafinib 0.625 μM, 48 hours post Sorafinib treatment
[4] = Sorafinib 0.375 μM, 24 hours post Sorafinib treatment
[5] = 5-flurouracil 25 μM, 72 hours post 5-flurouracil treatment
[6] = Gemcitabine 1 μM, 48 hours post Gemcitabine treatment
[7] = TRAIL 6.25 ng/ml, 72 hours post TRAIL treatment
[8] = Cisplatin 1.875 μM, 24 hours post Cisplatin treatment
[9] = Gemcitabine 0.03125 μM, 24 hours post Gemcitabine treatment
[10] = TRAIL 50 ng/ml, 24 hours post TRAIL treatment

Row | Molecule | Net % cell death after accounting for Scrambled siRNA [1, 3] | Observed % Cell death [1, 3] | Net % cell death after accounting for Scrambled siRNA [2, 4] | Observed % Cell death [2, 4] | Net % cell death after accounting for Scrambled siRNA [1, 5] | Observed % Cell death [1, 5] | Net % cell death after accounting for Scrambled siRNA [1, 6] | Observed % Cell death [1, 6] | Net % cell death after accounting for Scrambled siRNA [1, 7] | Observed % Cell death [1, 7] | Net % cell death after accounting for Scrambled siRNA [2, 8] | Observed % Cell death [2, 8] | Net % cell death after accounting for Scrambled siRNA [2, 9] | Observed % Cell death [2, 9] | Net % cell death after accounting for Scrambled siRNA [2, 10] | Observed % Cell death [2, 10]
1 | CNC(=O)c1cc(Oc2ccc(NC(=O)Nc3ccc(Cl)c(C(F)(F)F)c3)cc2)ccn1 [Sorafinib] | 12% | 12% | 13% | 13% | – | – | – | – | – | – | – | – | – | – | – | –
2 | Scrambled siRNA: non-specific Scramble siRNA, negative control; SEQ ID NO: 5, 5′-UUGCUAAGCGUCGGUCAAUTT-3′ (chemistry not given here) | 9 − 9 = 0% | 9% | 5 − 5 = 0% | 5% | 17 − 17 = 0% | 17% | 9 − 9 = 0% | 9% | 17 − 17 = 0% | 17% | 5 − 5 = 0% | 5% | 5 − 5 = 0% | 5% | 5 − 5 = 0% | 5%
3 | MADD siRNA: siRNA targeting exon 13L of the MADD splice variant of the IG20 gene; SEQ ID NO: 4, 5′-GAUUGUCAUAGAUUCGCCGTT-3′ (chemistry not given here) | 5% and 14 − 9 = 5% | 14% | 20% and 25 − 5 = 20% | 25% | – | 20% | 5% and 14 − 9 = 5% | 14% | – | 20% | 20% and 25 − 5 = 20% | 25% | 20% and 25 − 5 = 20% | 25% | 20% and 25 − 5 = 20% | 25%
4 | B1 | – | – | – | – | – | – | – | – | 7% | 7% | – | – | – | – | 0% | 0%
